Reference: patent US20250388565A1, “ESTROGEN RECEPTOR ALPHA DEGRADERS AND METHODS OF USE THEREOF” (Relay Therapeutics, Inc., priority 2022, published 2025)

Biological target: T1, ERα protein (HiBiT-tagged) in ESR1_HiBiT KI MCF7 cells (Homo sapiens, UniProt P03372)
T1 sequence (P03372 1-595): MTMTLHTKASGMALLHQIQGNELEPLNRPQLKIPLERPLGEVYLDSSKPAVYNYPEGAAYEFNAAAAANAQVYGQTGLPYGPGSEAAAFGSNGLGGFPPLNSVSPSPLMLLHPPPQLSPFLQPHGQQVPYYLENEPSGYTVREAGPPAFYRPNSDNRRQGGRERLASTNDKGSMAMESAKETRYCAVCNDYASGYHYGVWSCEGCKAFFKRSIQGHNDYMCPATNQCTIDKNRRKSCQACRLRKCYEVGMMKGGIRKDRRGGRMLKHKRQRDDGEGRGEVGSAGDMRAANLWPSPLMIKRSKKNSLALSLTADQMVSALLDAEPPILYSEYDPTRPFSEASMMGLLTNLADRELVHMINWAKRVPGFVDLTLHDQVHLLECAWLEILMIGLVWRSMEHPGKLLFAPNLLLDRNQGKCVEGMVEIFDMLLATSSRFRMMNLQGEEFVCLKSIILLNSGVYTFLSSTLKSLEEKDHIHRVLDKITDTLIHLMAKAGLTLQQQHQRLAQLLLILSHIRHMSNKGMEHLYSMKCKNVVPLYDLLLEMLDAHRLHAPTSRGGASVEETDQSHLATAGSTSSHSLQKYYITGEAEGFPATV
Assay: Nano Glo HiBiT Lytic Degradation Assay
Format: cell-based
Settings: 6 hours with compound, 14-point dose response 1:3, bell-shape curve fit, half-maximal effect of first Hill model, read-out: MCF7 ESR1 HiBiT - (DC50)
Procedure, shortened: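 HiBiT-tagged endogenous ERα remaining in MCF7 knock-in cells was quantified by lytic luminescence after a 6 h treatment. DC50 values derive from a bell-shaped curve, taken at the first Hill component's half-maximal effect.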

| Structure (SMILES) | DC50 [nM] |
| --- | --- |
| O=C1CC[C@H](N2Cc3cc(N4CCN(CC5CCN(c6ccc([C@@H]7c8ccc(O)cc8CC[C@@H]7C7CCCCC7)c(F)c6)CC5)CC4)ccc3C2=O)C(=O)N1 [Compound I-137, (S)-3-(5-(4-((1-(4-((1S,2R)-2-cyclohexyl-6-hydroxy-1,2,3,4-tetrahydronaphthalen-1-yl)-3-fluorophenyl)piperidin-4-yl)methyl)piperazin-1-yl)-1-oxoisoindolin-2-yl)piperidine-2,6-dione] | ≥ 10000 |
| O=C1CCC(c2ccc(N3CCN(CC4CCN(c5ccc([C@H]6c7ccc(O)cc7CC[C@H]6c6ccccc6)cc5)CC4)CC3)cc2)C(=O)N1 (stereo partly drawn) [Compound I-11, 3-[4-[4-[[1-[4-[(1S,2R)-6-hydroxy-2-phenyl-tetralin-1-yl]phenyl]-4-piperidyl]methyl]piperazin-1-yl]phenyl]piperidine-2,6-dione] | ≥ 10000 |
| O=C1CC[C@H](N2Cc3cc(N4CCN(CC5CCN(c6ccc([C@@H]7c8ccc(O)cc8CC[C@@H]7CC(F)(F)F)cc6)CC5)CC4)ccc3C2=O)C(=O)N1 [Compound I-157, (3S)-3-[5-[4-[[1-[4-[(1R,2R)-6-hydroxy-2-(2,2,2-trifluoroethyl)tetralin-1-yl]phenyl]-4-piperidyl]methyl]piperazin-1-yl]-1-oxo-isoindolin-2-yl]piperidine-2,6-dione] | 0.86 |
| Cc1cc(N2CCC3(CCN(CC4CCN(c5ccc([C@@H]6c7ccc(O)cc7CC[C@@H]6c6ccccc6)cc5)CC4)C3)CC2)ccc1N1CCC(=O)NC1=O [Compound I-293] | 0.52 |
| O=C1CC[C@H](N2Cc3cc(N4CCN(CC5CCN(c6ccc([C@H]7CCCc8cc(O)ccc87)cc6)CC5)CC4)ccc3C2=O)C(=O)N1 (single isomer, unassigned) [Compound I-102] | ≥ 10000 |
| O=C1CC[C@H](N2Cc3cc(N4CCN(CC5CCN(c6ccc([C@@H]7c8ccc(O)cc8C(F)(F)C[C@@H]7c7ccc(F)c(F)c7)cc6)CC5)CC4)ccc3C2=O)C(=O)N1 [Compound I-314, (S)-3-(5-(4-((1-(4-((1R,2S)-2-(3,4-difluorophenyl)-4,4-difluoro-6-hydroxy-1,2,3,4-tetrahydronaphthalen-1-yl)phenyl)piperidin-4-yl)methyl)piperazin-1-yl)-1-oxoisoindolin-2-yl)piperidine-2,6-dione] | 0.33 |
| O=C1CC[C@H](N2Cc3cc(N4CCN(CC5CCN(c6ccc([C@H]7c8ccc(O)cc8CC[C@H]7c7ccccc7)c(F)c6)CC5)CC4)ccc3C2=O)C(=O)N1 [II-85] | 1090 |
| O=C1CCN(c2ccc(N3CCC4(CCN(CC5CCN(c6ccc([C@@H]7c8ccc(O)cc8C(F)(F)C[C@@H]7c7ccccc7)cc6)CC5)C4)C3)cc2)C(=O)N1 (single isomer, unassigned) [Compound I-289] | ≥ 10000 |
| C[C@@H]1O[C@H](C2CCCCC2)[C@@H](c2ccc(N3CCC(CN4CCN(c5ccc6c(c5)CN([C@H]5CCC(=O)NC5=O)C6=O)CC4)CC3)cc2)c2ccc(O)cc21 (single isomer, unassigned) [Compound I-252] | 22 |
| O=C1CC[C@H](N2Cc3cc(N4CCN(CC5CCN(c6ccc([C@H]7c8ccc(O)cc8CC[C@H]7C7CCCCC7)c(F)c6)CC5)CC4)ccc3C2=O)C(=O)N1 [Compound I-136, (S)-3-(5-(4-((1-(4-((1R,2S)-2-cyclohexyl-6-hydroxy-1,2,3,4-tetrahydronaphthalen-1-yl)-3-fluorophenyl)piperidin-4-yl)methyl)piperazin-1-yl)-1-oxoisoindolin-2-yl)piperidine-2,6-dione] | ≥ 10000 |
| Cn1nc([C@H]2CCC(=O)NC2=O)c2ccc(N3CCN(CC4CCN(c5ccc([C@@H]6c7ccc(O)cc7CO[C@@H]6c6ccccc6)cc5)CC4)CC3)cc21 (single isomer, unassigned) [Compound I-394] | 0.39 |
| C[C@@H]1CN(c2ccc3c(c2)CN([C@H]2CCC(=O)NC2=O)C3=O)CCN1CC1CCN(c2ccc([C@H]3c4ccc(O)cc4CC[C@H]3c3ccccc3)cc2)CC1 (single isomer, unassigned) [II-15] | ≥ 10000 |
| O=C1CCC(N2Cc3cc(C4=CCN(CC5CCN(c6ccc([C@@H]7c8ccc(O)cc8CC[C@@H]7c7ccccc7)cc6)CC5)CC4)ccc3C2=O)C(=O)N1 (stereo partly shown) [II-104] | 22 |
| Cn1nc([C@@H]2CCC(=O)NC2=O)c2ccc(N3CCN(CC4CCN(c5ccc([C@@H]6c7ccc(O)cc7CC[C@@H]6c6ccccc6)cc5)CC4)CC3)cc21 (single isomer, unassigned) [Compound I-296] | 1 |
| O=C1CC[C@H](N2Cc3cc(N4CCN(C(=O)C5CCN(c6ccc([C@@H]7c8ccc(O)cc8CC[C@@H]7c7ccccc7)cc6)CC5)CC4)ccc3C2=O)C(=O)N1 [II-68] | 0.5 |
| O=C1CC[C@H](N2Cc3cc(N4CCN(CC5CCN(c6ccc([C@H]7c8ccc(O)cc8CC[C@H]7c7ccccc7)cc6F)CC5)CC4)ccc3C2=O)C(=O)N1 [II-81] | ≥ 10000 |
| O=C1CC[C@H](N2Cc3cc(N4CCN(CC5CCN(c6ccc([C@H]7c8ccc(O)cc8CC[C@H]7C7CCC(F)(F)CC7)cc6)CC5)CC4)ccc3C2=O)C(=O)N1 (single isomer, unassigned) [Compound I-55] | 0.41 |
| O=C1CC[C@H](N2Cc3cc(N4CCN(CC5CCN(c6ccc([C@H]7c8ccc(O)cc8CC[C@H]7c7cccc(F)c7)cc6)CC5)CC4)ccc3C2=O)C(=O)N1 (single isomer, unassigned) [II-27] | 0.82 |
| COc1cc(N2CCC(CN3CCN(c4ccc5c(c4)CN([C@H]4CCC(=O)NC4=O)C5=O)CC3)CC2)ccc1[C@H]1c2ccc(O)cc2CC[C@H]1c1ccccc1 [Compound I-143, (S)-3-(5-(4-((1-(4-((1R,2R)-6-hydroxy-2-phenyl-1,2,3,4-tetrahydronaphthalen-1-yl)-3-methoxyphenyl)piperidin-4-yl)methyl)piperazin-1-yl)-1-oxoisoindolin-2-yl)piperidine-2,6-dione] | ≥ 10000 |
| CC(C)C[C@@H]1CC(F)(F)c2cc(O)ccc2[C@@H]1c1ccc(N2CCC(CN3CCN(c4ccc5c(c4)CN([C@H]4CCC(=O)NC4=O)C5=O)CC3)CC2)cc1 [Compound I-220, (S)-3-(5-(4-((1-(4-((1S,2R)-4,4-difluoro-6-hydroxy-2-isobutyl-1,2,3,4-tetrahydronaphthalen-1-yl)phenyl)piperidin-4-yl)methyl)piperazin-1-yl)-1-oxoisoindolin-2-yl)piperidine-2,6-dione] | 14 |
| O=C1CCC(c2cccc(N3CCC4(CCN(CC5CCN(c6ccc([C@@H]7c8ccc(O)cc8CC[C@@H]7c7ccccc7)cc6)CC5)CC4)CC3)c2)C(=O)N1 (stereo partly drawn) [Compound I-183, 3-(3-(9-((1-(4-((1R,2S)-6-hydroxy-2-phenyl-1,2,3,4-tetrahydronaphthalen-1-yl)phenyl)piperidin-4-yl)methyl)-3,9-diazaspiro[5.5]undecan-3-yl)phenyl)piperidine-2,6-dione] | ≥ 10000 |
| O=C1CC[C@H](N2Cc3cc(N4CCN(CC5CCN(c6ccc([C@@H]7c8ccc(O)cc8C(F)(F)C[C@@H]7c7ccccc7)cc6F)CC5)CC4)ccc3C2=O)C(=O)N1 [Compound I-194, (S)-3-(5-(4-((1-(4-((1R,2S)-4,4-difluoro-6-hydroxy-2-phenyl-1,2,3,4-tetrahydronaphthalen-1-yl)-2-fluorophenyl)piperidin-4-yl)methyl)piperazin-1-yl)-1-oxoisoindolin-2-yl)piperidine-2,6-dione] | 0.41 |
